Assays:
[1] = molecular target: T1, purified human renal dehydropeptidase (Homo sapiens, UniProt P16444); assay: Stability test against renal dehydropeptidase; type: in vitro ADME; settings: for half-life at 100 µM: human, purified renal dehydropeptidase, pH 7
T1 sequence (P16444 17-411): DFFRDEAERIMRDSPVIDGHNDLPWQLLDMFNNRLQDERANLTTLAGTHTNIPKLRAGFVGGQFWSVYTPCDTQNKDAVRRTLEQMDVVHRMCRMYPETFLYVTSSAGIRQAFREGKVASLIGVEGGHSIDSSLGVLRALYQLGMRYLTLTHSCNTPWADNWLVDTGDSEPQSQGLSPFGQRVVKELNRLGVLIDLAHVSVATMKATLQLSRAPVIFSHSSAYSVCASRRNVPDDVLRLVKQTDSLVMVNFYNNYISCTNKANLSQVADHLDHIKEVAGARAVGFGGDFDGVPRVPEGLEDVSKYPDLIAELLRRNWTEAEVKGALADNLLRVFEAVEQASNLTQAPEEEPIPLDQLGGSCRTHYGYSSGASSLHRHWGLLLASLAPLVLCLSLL
Method: Method: 0.325 μ/ml (final concentration) of purified human renal dehydropeptidase and 100 μM (final concentration) of each test compound were heated to 37° C. in 50 mM of Tris/HCl buffer (pH 7.0) and samples were collected at planned hours. Remaining amounts of the compound in the samples were analyzed quantitatively and the half-life period of each compound was calculated.

E. coli KC-14 = assay: Therapeutic effect on the experimental infection in mice (E. coli KC-14); type: in vivo; settings: Escherichia coli, E. coli KC-14 4.8 × 10^5 colony forming unit intraperitoneally, survival 5 days later, male ICR mice
Method: Among the novel compounds as obtained according to the present ivention, the compound (27) was used to carry out a therapy experiment with infected animals. With male mice of ICR strain (5-weeks aged, weighing from 23 to 27 g) being employed as an experimental animal, E. coli KC-14 was inoculate intraperitoneally to the mice, and, 2 hours later, the compound (27) was administered subcutaneously or orally.

S. aureus Smith = assay: Therapeutic effect on the experimental infection in mice (S. aureus Smith); type: in vivo; settings: Staphylococcus aureus, sc, 120 h, S. aureus Smith 3.8 × 10^6 colony forming unit, compound subcut.
Acute toxicity test = settings: mouse, in vivo
Source text: Among the novel compounds as obtained according to the present invention, the compound (27) was selected to conduct an acute toxicity test. Mice of ICR strain (4-weeks aged), being used as an experimental animal, were given the compound through oral and intravenous routes.

C[C@@H](O)[C@H]1C(=O)N2C(C(=O)O)=C(SCCN=CN)C[C@H]12 [Imipenem]
Remaining amount after 9 hours ([1]; 100 μM test compound, human renal dehydropeptidase, 37° C., 50 mM Tris/HCl buffer pH 7.0, 9 hours): 14.7 µg/mL | half-life at 100 µM [1]: 3.02 h

CCSC1=C(C(=O)O)N2C(=O)[C@H]([C@@H](C)O)[C@H]2S1 [Sch 29482]
half-life at 100 µM [1]: 1.44 h

C[C@@H](O)[C@H]1C(=O)N2C(C(=O)O)=C(CC3CCOC3)S[C@H]12 (stereo partly shown) [Compound 27]
ED50 (E. coli KC-14; KC14, 120 h, compound oral 2 hours later): 9.5 mg/kg | ED50 (E. coli KC-14; KC14, ip, 120 h, compound subcut. 2 hours later): 3 mg/kg | ED50 (S. aureus Smith): 1.11 mg/kg | survival in acute toxicity test (Acute toxicity test; iv): all found to survive | survival in acute toxicity test (Acute toxicity test; po): all found to survive | stability against renal dehydropeptidase (in words) [1]: more stable than Sch 29482 and Imipenem | half-life at 100 µM [1]: 3.81 h
